According to patent US10485235B2, “Aryloxypyrimidinyl ethers as herbicides” (FMC Corporation, priority 2015, dated 2019):

Legend:
Format in all cases: in vivo
kochia (Kochia scoparia) [1] = assay: Test A postemergence, kochia
In short: (§1)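 Ratings run 0–100, where 100 is complete control, and were scored visually against untreated plants about 10 days after treatment under greenhouse conditions. Formulated chemicals were sprayed either onto the soil surface after seeding (preemergence) or onto one- to two-leaf seedlings 2–10 cm high (postemergence).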

[2] = tested on: foxtail, giant (giant foxtail, Setaria faberii); assay: Test A preemergence, giant foxtail; settings: Preemergence, 0 to 100 scale (0 no effect, 100 complete control)
In short: as §1

[3] = tested on: ragweed (common ragweed, Ambrosia elatior); assay: Test A preemergence, ragweed; settings: Preemergence, 0 to 100 scale (0 no effect, 100 complete control)
In short: as §1

[4] = tested on: ragweed (common ragweed, Ambrosia elatior); assay: Test A postemergence, ragweed
In short: as §1

[5] = tested on: foxtail, giant (giant foxtail, Setaria faberii); assay: Test A postemergence, giant foxtail
In short: as §1

[6] = tested on: wheat (Triticum aestivum); assay: Test A postemergence, wheat
In short: as §1

[7] = tested on: blackgrass (Alopecurus myosuroides); assay: Test A postemergence, blackgrass
In short: as §1

corn (Zea mays) = assay: Test A postemergence, corn
In short: as §1

[8] = tested on: ryegrass, Italian (Italian ryegrass, Lolium multiflorum); assay: Test A postemergence, Italian ryegrass
In short: as §1

[9] = tested on: pigweed (Amaranthus retroflexus); assay: Test A preemergence, pigweed; settings: Preemergence, 0 to 100 scale (0 no effect, 100 complete control)
In short: as §1

[10] = tested on: barnyardgrass (Echinochloa crus-galli); assay: Test A postemergence, barnyardgrass
In short: as §1

kochia (Kochia scoparia) [11] = assay: Test A preemergence, kochia; settings: Preemergence, 0 to 100 scale (0 no effect, 100 complete control)
In short: as §1

[12] = tested on: galium (catchweed bedstraw, Galium aparine); assay: Test A postemergence, galium
In short: as §1

[13] = tested on: barnyardgrass (Echinochloa crus-galli); assay: Test A preemergence, barnyardgrass; settings: Preemergence, 0 to 100 scale (0 no effect, 100 complete control)
In short: as §1

rice (Oryza sativa) = assay: Test B flooded paddy test, rice; settings: 250 g ai/ha, Flood; visual rating after 13 to 15 days; scale 0 to 100, 0 is no effect, 100 is complete control
In short: (§2)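 Visual ratings, 0 = no effect to 100 = complete control, versus controls after 13 to 15 days in greenhouse. Test compounds were added to paddy water kept 3 cm over the soil surface, on plants at 2-leaf stage.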

[14] = tested on: ducksalad (Heteranthera limosa); assay: Test B flooded paddy test, ducksalad; settings: 250 g ai/ha, Flood; visual rating after 13 to 15 days; scale 0 to 100, 0 is no effect, 100 is complete control
In short: as §2

[15] = tested on: pigweed (Amaranthus retroflexus); assay: Test A postemergence, pigweed
In short: as §1

[16] = tested on: ryegrass, Italian (Italian ryegrass, Lolium multiflorum); assay: Test A preemergence, Italian ryegrass; settings: Preemergence, 0 to 100 scale (0 no effect, 100 complete control)
In short: as §1

[17] = tested on: barnyardgrass (Echinochloa crus-galli); assay: Test B flooded paddy test, barnyardgrass; settings: 250 g ai/ha, Flood; visual rating after 13 to 15 days; scale 0 to 100, 0 is no effect, 100 is complete control
In short: as §2

[18] = tested on: sedge, umbrella (small-flower umbrella sedge, Cyperus difformis); assay: Test B flooded paddy test, umbrella sedge; settings: 250 g ai/ha, Flood; visual rating after 13 to 15 days; scale 0 to 100, 0 is no effect, 100 is complete control
In short: as §2

[19] = 125 g ai/ha, postemergence, 0 to 100 scale, 0 is no effect, 100 is complete control, approximately 10 days
[20] = Postemergence, 31 g ai/ha, 0 to 100 scale (0 no effect, 100 complete control)

Structure (SMILES) | Plant response rating, Kochia (kochia (Kochia scoparia) [1]; [19]) | Plant response rating, Kochia (kochia (Kochia scoparia) [1]; [20]) | Plant response rating, Foxtail, Giant ([2]; 31 g ai/ha) | Plant response rating, Foxtail, Giant ([2]; 125 g ai/ha) | Plant response rating, Ragweed ([3]; 31 g ai/ha) | Plant response rating, Ragweed ([3]; 125 g ai/ha) | Plant response rating, Ragweed [4, 19] | Plant response rating, Ragweed [4, 20] | Plant response rating, Foxtail, Giant [5, 19] | Plant response rating, Foxtail, Giant [5, 20] | Plant response rating, Wheat [6, 19] | Plant response rating, Wheat [6, 20] | Plant response rating, Blackgrass [7, 19] | Plant response rating, Blackgrass [7, 20] | Plant response rating, Corn (corn (Zea mays); [19]) | Plant response rating, Corn (corn (Zea mays); [20]) | Plant response rating, Ryegrass, Italian [8, 19] | Plant response rating, Ryegrass, Italian [8, 20] | Plant response rating, Pigweed ([9]; 31 g ai/ha) | Plant response rating, Pigweed ([9]; 125 g ai/ha) | also measured
Cl/C=C/COc1c(I)cccc1Oc1ncc(Cl)cn1 [Compound 68] | 100 | 90 | 70 | 100 | 0 | 0 | 20 | 0 | 80 | 30 | 0 | 0 | 60 | 20 | 30 | 20 | 30 | 0 | 0 | 100 | Plant response rating, Barnyardgrass [10, 19]: 100; Plant response rating, Barnyardgrass [10, 20]: 60; Plant response rating, Kochia (kochia (Kochia scoparia) [11]; 31 g ai/ha): 0; Plant response rating, Kochia (kochia (Kochia scoparia) [11]; 125 g ai/ha): 30; Plant response rating, Galium [12, 19]: 60; Plant response rating, Galium [12, 20]: 50; Plant response rating, Barnyardgrass ([13]; 31 g ai/ha): 70; Plant response rating, Barnyardgrass ([13]; 125 g ai/ha): 70; Plant response rating, Rice (rice (Oryza sativa)): 10; Plant response rating, Ducksalad [14]: 100; Plant response rating, Pigweed [15, 19]: 100; Plant response rating, Pigweed [15, 20]: 80; Plant response rating, Ryegrass, Italian ([16]; 31 g ai/ha): 0; Plant response rating, Ryegrass, Italian ([16]; 125 g ai/ha): 20; Plant response rating, Barnyardgrass [17]: 40; Plant response rating, Sedge, Umbrella [18]: 100
FC(F)(F)CCOc1c(I)cccc1Oc1ncc(Cl)cn1 [Compound 69] | 100 | 90 | 90 | 100 | 0 | 0 | 40 | 30 | 100 | 40 | 30 | 0 | 80 | 30 | 70 | 20 | 90 | 0 | 90 | 100 | Plant response rating, Barnyardgrass [10, 19]: 100; Plant response rating, Barnyardgrass [10, 20]: 60; Plant response rating, Kochia (kochia (Kochia scoparia) [11]; 31 g ai/ha): 80; Plant response rating, Kochia (kochia (Kochia scoparia) [11]; 125 g ai/ha): 100; Plant response rating, Galium [12, 19]: 100; Plant response rating, Galium [12, 20]: 60; Plant response rating, Barnyardgrass ([13]; 31 g ai/ha): 90; Plant response rating, Barnyardgrass ([13]; 125 g ai/ha): 100; Plant response rating, Rice (rice (Oryza sativa)): 15; Plant response rating, Ducksalad [14]: 100; Plant response rating, Pigweed [15, 19]: 100; Plant response rating, Pigweed [15, 20]: 100; Plant response rating, Ryegrass, Italian ([16]; 31 g ai/ha): 10; Plant response rating, Ryegrass, Italian ([16]; 125 g ai/ha): 50; Plant response rating, Barnyardgrass [17]: 40; Plant response rating, Sedge, Umbrella [18]: 100
Cc1cccc(Oc2ncc(Cl)cn2)c1OCCCC#N [Compound 70] | 30 | 20 | 0 | 30 | 0 | 0 | 20 | 0 | 0 | 0 | 0 | 0 | 0 | 0 | 20 | 0 | 0 | 0 | 0 | 50 | Plant response rating, Barnyardgrass [10, 19]: 30; Plant response rating, Barnyardgrass [10, 20]: 0; Plant response rating, Kochia (kochia (Kochia scoparia) [11]; 31 g ai/ha): 0; Plant response rating, Kochia (kochia (Kochia scoparia) [11]; 125 g ai/ha): 20; Plant response rating, Galium [12, 19]: 20; Plant response rating, Galium [12, 20]: 0; Plant response rating, Barnyardgrass ([13]; 31 g ai/ha): 0; Plant response rating, Barnyardgrass ([13]; 125 g ai/ha): 70; Plant response rating, Rice (rice (Oryza sativa)): 0; Plant response rating, Ducksalad [14]: 70; Plant response rating, Pigweed [15, 19]: 40; Plant response rating, Pigweed [15, 20]: 20; Plant response rating, Ryegrass, Italian ([16]; 31 g ai/ha): 0; Plant response rating, Ryegrass, Italian ([16]; 125 g ai/ha): 0; Plant response rating, Barnyardgrass [17]: 0; Plant response rating, Sedge, Umbrella [18]: 50
